# Test results: US20140179681A1, “METHODS AND COMPOSITIONS OF TARGETED DRUG DEVELOPMENT” (priority 2010, published 2014)
# Read-outs that look alike come from different tables or passages of the source.
# Columns and labels:
# EGFR = biological target: T1, EGFR (Homo sapiens, UniProt P00533); experiment: EGFR in-cell Western (ICW) screening protocol (EGFR inhibition assay); type: cell-based; conditions: for ICW Screen: Table 11; for ICW Screen / ICW assay: % Inhibition of EGF dependent EGFR phosphorylation in A431 cells, compound 125 μM in assay; for ICW assay: Table 10
# T1 construct: host or cells: A431
# T1 sequence (P00533 25-1210): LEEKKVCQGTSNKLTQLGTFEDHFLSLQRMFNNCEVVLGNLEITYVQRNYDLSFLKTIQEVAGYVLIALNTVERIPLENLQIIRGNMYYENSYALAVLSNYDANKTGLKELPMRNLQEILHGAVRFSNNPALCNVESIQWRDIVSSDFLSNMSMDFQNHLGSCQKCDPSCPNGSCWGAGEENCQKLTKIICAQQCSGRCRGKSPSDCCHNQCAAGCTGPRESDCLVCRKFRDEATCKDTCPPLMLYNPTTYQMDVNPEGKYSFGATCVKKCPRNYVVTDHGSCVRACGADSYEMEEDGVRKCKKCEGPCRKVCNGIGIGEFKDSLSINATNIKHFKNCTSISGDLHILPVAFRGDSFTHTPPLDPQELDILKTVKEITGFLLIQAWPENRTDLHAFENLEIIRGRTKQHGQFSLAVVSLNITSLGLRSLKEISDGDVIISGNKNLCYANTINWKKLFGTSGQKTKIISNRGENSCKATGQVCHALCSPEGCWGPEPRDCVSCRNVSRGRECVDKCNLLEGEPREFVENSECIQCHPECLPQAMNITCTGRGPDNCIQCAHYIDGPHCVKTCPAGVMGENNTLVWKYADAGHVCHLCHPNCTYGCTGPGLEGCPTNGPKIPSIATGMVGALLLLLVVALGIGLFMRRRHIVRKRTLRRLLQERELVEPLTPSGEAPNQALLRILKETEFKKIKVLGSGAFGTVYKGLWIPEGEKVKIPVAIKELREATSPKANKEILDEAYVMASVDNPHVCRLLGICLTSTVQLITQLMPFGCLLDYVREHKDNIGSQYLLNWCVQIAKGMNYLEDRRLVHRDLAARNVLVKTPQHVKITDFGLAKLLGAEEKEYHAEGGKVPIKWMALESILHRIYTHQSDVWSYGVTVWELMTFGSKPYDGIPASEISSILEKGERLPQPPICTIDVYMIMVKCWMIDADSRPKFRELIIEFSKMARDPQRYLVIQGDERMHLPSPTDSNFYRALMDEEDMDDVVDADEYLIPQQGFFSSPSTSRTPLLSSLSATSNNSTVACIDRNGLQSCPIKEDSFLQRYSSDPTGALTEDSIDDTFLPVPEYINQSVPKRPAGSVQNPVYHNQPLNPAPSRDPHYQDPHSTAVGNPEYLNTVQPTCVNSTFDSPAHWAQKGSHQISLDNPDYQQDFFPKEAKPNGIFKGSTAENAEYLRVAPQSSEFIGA
# Method in brief: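 Serum-starved A431 cells (2 h) were pretreated with compound for 4 h at 37° C, then stimulated with EGF (10 ng/ml final, or 6.6 or 12.5 ng/ml in some runs) for 10 min. After formaldehyde fixation, phospho-EGFR (Tyr1173, or Tyr1045 in some runs) and total EGFR were detected by in-cell Western immunostaining.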
# [1] = system: epithelial carcinoma A431 cell line; experiment: MTT Cell Proliferation Assay, A431 cells; type: cell-based
# Method in brief: (§1)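 Viability was measured by mitochondrial MTT reduction after cells were exposed to compound for 3 days in reduced-serum medium. Inhibition was calculated per plate against 0.5% DMSO controls.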
# MDBK line = experiment: MTT Cell Proliferation Assay, MDBK cells; type: cell-based, bovine
# Method in brief: as §1
# [2] = Homo sapiens, A-431, Table 11, first of x/y(ratio): A431, unit not printed (doses in μM), read-out: MTT Screen (first value)
# [3] = Bos taurus, MDBK, Table 11, second of x/y(ratio): MDBK, unit not printed (doses in μM), read-out: MTT Screen (second value)
# [4] = Homo sapiens, A-431, 72 h, Table 11, first of x/y(ratio): A431, unit not printed (doses in μM), read-out: MTT Screen (first value)
# [5] = Homo sapiens, A-431, Table 11, first of x/y(ratio): A431, unit inferred, read-out: MTT Follow-up (first value)
# [6] = Bos taurus, MDBK, Table 11, second of x/y(ratio): MDBK, unit inferred, read-out: MTT Follow-up (second value)
# [7] = Table 11, second of x/y(ratio): MDBK, unit not printed (doses in μM)
# [8] = first value of 'a/b (c)', taken as A431 cells, read-out: MTT Screen, first value of cell
# [9] = second value of 'a/b (c)', taken as MDBK cells, read-out: MTT Screen, second value of cell
# [10] = Table 11, first of x/y(ratio): A431, unit not printed (doses in μM), read-out: MTT Screen (first value)
# [11] = Table 11, second of x/y(ratio): MDBK, unit not printed (doses in μM), read-out: MTT Screen (second value)
# [12] = Homo sapiens, A-431, first value of 'a/b (c)', taken as A431 cells, read-out: MTT Screen, first value of cell
# [13] = Bos taurus, MDBK, second value of 'a/b (c)', taken as MDBK cells, read-out: MTT Screen, second value of cell
# [14] = Homo sapiens, A-431, 72 h, Table 10, first of x/y(ratio): A431, three day treatment, unit not printed (doses in μM), read-out: MTT assay (first value)
# [15] = Bos taurus, MDBK, 72 h, Table 10, second of x/y(ratio): MDBK, three day treatment, unit not printed (doses in μM), read-out: MTT assay (second value)
Structure (SMILES),ICW Screen (ICW Inhibition) (EGFR),"IC50 [1, 12] [µM]",IC50 (MDBK line; [13]) [µM],other results
CC(C)c1ccc2oc(=O)cc(CN3CCN(C/C=C/c4ccccc4)CC3)c2c1 [AD4-10188],–,–,–,"ICW Screen (EGFR): 53.35; IC50 [1, 2]: 9.05 µM; IC50 (MDBK line; [3]): 16.3 µM"
CC(C)c1ccc2oc(=O)cc(CN3CCN(Cc4ccc5c(c4)OCO5)CC3)c2c1 [AD4-10192],–,–,–,"ICW Screen (EGFR): 16.772; IC50 [1, 4]: 16.5 µM; IC50 (MDBK line; [3]): 43.3 µM"
COc1ccc(N2CCN(Cc3cc(=O)oc4cc5c(cc34)OCO5)CC2)cc1 [AD4-10209],–,–,–,"ICW Screen (EGFR): −10.6; IC50 [1, 5]: 2.5 µM; IC50 (MDBK line; [6]): 50.1 µM"
COc1ccc(N2CCN(Cc3cc(=O)oc4c(C)c(O)ccc34)CC2)cc1 [AD4-10217],–,–,–,"ICW Screen (EGFR): −1.007; IC50 [1, 4]: 14 µM; MTT Screen (second value) (MDBK line; [7]): non-convergent"
CC(C)(C)C(=O)NC(=S)Nc1ccc(S(=O)(=O)NCCc2ccccc2)cc1 [AD4-10313],30.774,–,–,"IC50 [1, 8]: 20.9 µM; IC50 (MDBK line; [9]): 17.6 µM"
Cc1c(O)ccc2c(CN3CCN(Cc4ccc5c(c4)OCO5)CC3)cc(=O)oc12 [AD4-10491],–,–,–,"ICW Screen (EGFR): 29.223; IC50 [1, 10]: 22.2 µM; IC50 (MDBK line; [11]): 40.6 µM"
CC(C)CC(=O)NC(=S)Nc1ccc(S(=O)(=O)NCCc2ccccc2)cc1 [AD4-10608],62.846,6.33,5.35,–
O=C(NC(=S)Nc1ccc(S(=O)(=O)NCCc2ccccc2)cc1)C1CCCC1 [AD4-10609],43.828,6.84,6.34,–
CC(C)C(=O)NC(=S)Nc1ccc(S(=O)(=O)NCCc2ccccc2)cc1 [AD4-10611],38.285,30.9,20,–
CCCC(=O)NC(=S)Nc1ccc(S(=O)(=O)NCCc2ccccc2)cc1 [AD4-10612],30.841,11.7,13.2,–
CC(C)(C)C(=O)NC(=S)Nc1ccc(S(=O)(=O)NCCc2ccccc2)cc1 [AD4-10613],35.514,13.9,11.8,–
O=c1cc(CN2CCN(Cc3ccc4c(c3)OCO4)CC2)c2cc(Cl)c(O)cc2o1 [AD4-10618],–,–,–,"ICW Screen (EGFR): −3.062; IC50 [1, 4]: 18.4 µM; MTT Screen (second value) (MDBK line; [7]): non-convergent"
CCc1cc2c(CN3CCN(C(c4ccccc4)c4ccccc4)CC3)cc(=O)oc2cc1O [AD4-10619],–,–,–,"ICW Screen (EGFR): −44.55; IC50 [1, 5]: 2.97 µM; MTT Screen, % @ […] ([1]; Table 11, @ […], cell line not stated): 87% @ 2.6 μM; IC50 (MDBK line; [6]): 3.06 µM"
CC(=O)NC(=S)Nc1ccc(S(=O)(=O)N2CCc3ccccc32)cc1 [AD4-10623],46.185,25.8,38.3,–
O=C(CCc1ccco1)NC(=S)Nc1ccc(S(=O)(=O)NCCc2ccccc2)cc1 [AD4-10624],49.448,25.6,16.8,–
CC(C)CC(=O)NC(=S)Nc1ccc(S(=O)(=O)N2CCc3ccccc32)cc1 [AD4-10626],50.05,5.31,19.6,–
CCc1cc2c(CN3CCN(Cc4ccccc4)CC3)cc(=O)oc2cc1O [AD4-10631],–,–,–,"ICW Screen (EGFR): 104.48; IC50 [1, 10]: 35.6 µM; IC50 (MDBK line; [11]): 37.5 µM"
O=c1cc(CN2CCN(C(c3ccccc3)c3ccccc3)CC2)c2ccc(O)c(O)c2o1 [AD4-10633],–,–,–,"ICW Screen (EGFR): 46.398; IC50 [1, 2]: 5.2 µM; MTT Follow-up (first value) ([1]; Table 11, first of x/y(ratio): A431, unit not given): Not Convergent; MTT Screen (second value) (MDBK line; [7]): non- convergent"
Cc1c(O)ccc2c(CN3CCN(Cc4ccc5c(c4)OCO5)CC3)cc(=O)oc12 [AD4-10637],–,–,–,"ICW Screen (EGFR): 30.057; IC50 [1, 2]: 20.8 µM; IC50 (MDBK line; [3]): 41.3 µM"
O=c1cc(CN2CCN(Cc3ccccc3)CC2)c2cc3c(cc2o1)OCO3 [AD4-10639],–,–,–,"ICW Screen (EGFR): 43.695; IC50 [1, 4]: 42.6 µM; MTT Screen (second value) (MDBK line; [7]): non-convergent"
Cc1ccc(NS(=O)(=O)c2ccc(NC(=S)NC(=O)C3CCC3)cc2)cc1C [AD4-10676],59.637,–,8.84,"IC50 [1, 8]: 18.6 µM"
CC(=O)c1cccc(NC(=S)Nc2ccc(NS(=O)(=O)c3ccc(C)cc3)cc2)c1 [AD4-10693],–,–,–,"ICW assay (EGFR): 26.8206; IC50 [1, 14]: 48.2 µM; IC50 (MDBK line; [15]): 35.9 µM"

Structure (SMILES),ICW Screen (ICW Inhibition) (EGFR),"IC50 [1, 12] [µM]",IC50 (MDBK line; [13]) [µM],other results
CC(=O)c1ccc(NC(=S)Nc2ccc(S(=O)(=O)Nc3ccccc3C)cc2)cc1 [AD4-10700],–,–,–,"ICW assay (EGFR): 52.5996; IC50 [1, 14]: 14.7 µM; IC50 (MDBK line; [15]): 14.3 µM"
O=C(NC(=S)Nc1ccc(S(=O)(=O)Nc2ccccc2)cc1)c1ccco1 [AD4-10705],47.764,23.1,25.2,–
Cc1ccccc1C(=O)NC(=S)Nc1ccc(S(=O)(=O)Nc2ccccc2)cc1 [AD4-10706],55.497,15.1,23.1,–
Cc1ccc(NS(=O)(=O)c2ccc(NC(=S)NC(=O)C3CCCCC3)cc2)cc1C [AD4-10708],37.233,16.6,35.9,–
CCOc1ccc(NS(=O)(=O)c2ccc(NC(=S)Nc3ccccc3)cc2)cc1 [AD4-11344],–,–,–,"ICW assay (EGFR): 34.1727; IC50 [1, 14]: 15.1 µM; IC50 (MDBK line; [15]): 15.3 µM"
CCc1nnc(NS(=O)(=O)c2ccc(NC(=S)NC(=O)/C=C/c3ccccc3)cc2)s1 [AD4-11367],46.872,43.3,43.6,–
COc1cc(NS(=O)(=O)c2ccc(NC(=S)NC(=O)/C=C/c3ccccc3)cc2)nc(OC)n1 [AD4-11369],43.546,48.6,–,IC50 (MDBK line; [9]): 47.2 µM
COc1ccc(OCC(=O)NC(=S)Nc2ccc(S(=O)(=O)Nc3cc(C)cc(C)c3)cc2)cc1 [AD4-11396],30.745,–,–,"IC50 [1, 8]: 25.1 µM; IC50 (MDBK line; [9]): 21.2 µM"
Cc1cc(Cl)ccc1OCC(=O)NC(=S)Nc1ccc(S(=O)(=O)N2CCCCC2)cc1 [AD4-11402],33.635,11.8,17.4,–
CCOc1ccc(NS(=O)(=O)c2ccc(NC(=S)NC(=O)CC)cc2)cc1 [AD4-11409],74.94,17.2,11.7,–
CCN(c1ccccc1)S(=O)(=O)c1ccc(NC(=S)NC(=O)Cc2ccccc2)cc1 [AD4-11412],31.958,11.4,20,–
O=C(NC(=S)Nc1ccc(S(=O)(=O)Nc2ccccc2)cc1)C1CC1 [AD4-11413],46.23,–,–,"IC50 [1, 8]: 31.4 µM; IC50 (MDBK line; [9]): 29.8 µM"
COc1ccc(CC(=O)NC(=S)Nc2ccc(S(=O)(=O)NCCc3ccccc3)cc2)cc1 [AD4-11415],35.841,15.7,10.5,–
O=C(Cc1ccccc1)NC(=S)Nc1ccc(S(=O)(=O)Nc2ccccc2)cc1 [AD4-11416],53.517,–,–,"IC50 [1, 8]: 15.4 µM; IC50 (MDBK line; [9]): 13.5 µM"
Cc1ccc(NS(=O)(=O)c2ccc(NC(=S)NC(=O)C3CCCCC3)cc2)cc1C [AD4-11417],40.711,–,–,"IC50 [1, 8]: 25.5 µM; IC50 (MDBK line; [9]): 49.3 µM"
COc1ccc(CC(=O)NC(=S)Nc2ccc(S(=O)(=O)Nc3ccc(C)c(C)c3)cc2)cc1 [AD4-11418],34.067,11.9,10.2,–
Cc1ccc(NS(=O)(=O)c2ccc(NC(=S)NC(=O)CCc3ccccc3)cc2)cc1C [AD4-11419],40.289,31.3,38.8,–
O=C(NC(=S)Nc1ccc(S(=O)(=O)N2CCCCC2)cc1)C1CCC1 [AD4-11421],37.181,41.5,43.5,–
Cc1ccc(NS(=O)(=O)c2ccc(NC(=S)NC(=O)C3CCC3)cc2)cc1C [AD4-11422],44.982,–,–,"IC50 [1, 8]: 29.5 µM; IC50 (MDBK line; [9]): 9.23 µM"
Cc1cc(C)c(NS(=O)(=O)c2ccc(NC(=S)Nc3ccc(S(C)(=O)=O)cc3)cc2)c(C)c1 [AD4-11427],–,–,–,"ICW assay (EGFR): 44.904; IC50 [1, 14]: 12 µM; IC50 (MDBK line; [15]): 14.5 µM"
COc1ccc(NC(=S)Nc2ccc(S(=O)(=O)Nc3c(C)cc(C)cc3C)cc2)cc1OC [AD4-11428],–,–,–,"ICW assay (EGFR): 29.8673; IC50 [1, 14]: 20.8 µM; IC50 (MDBK line; [15]): 15.5 µM"
CCN(c1ccccc1)S(=O)(=O)c1ccc(NC(=S)Nc2ccccc2)cc1 [AD4-11430],–,–,–,"ICW assay (EGFR): 27.1482; IC50 [1, 14]: 19.8 µM; IC50 (MDBK line; Table 10, second of x/y(ratio): MDBK, three day treatment, unit not printed (doses in μM), read-out: MTT assay (second value)): 16.8 µM"
